From patent US20140303109A1 (priority 2010, published 2014)
Where two headings read alike, the source gives them in different places.

What was measured:
[1] = tested on: NF-κB DNA binding activity; assay: EMSA for NF-κB DNA binding activity, three PC lines; type: cell-based, human; conditions: 72 h; CDF/CUR 1 or 4 μMol/L, GEM 10 nMol/L
Method: The DNA binding activity of the nuclear transcription factor, NF-κB was assessed in the BxPC-3, MIAPaCa-E, and MIAPaCa-M cell lines by EMSA. […] The cells were lysed in 400 μl of lysis buffer and the reaction was set up as described earlier in Ali, et al., id. The gel was scanned using an Odyssey Infrared Imaging System, (LI-COR, Inc., Lincoln, Nebr.). Equal protein loading was ensured by immunoblotting 10 μg of nuclear protein and probing with anti-retinoblastoma antibody.

[2] = tested on: PGE2; assay: PGE2 immunoassay, three PC lines; type: cell-based, human; conditions: 24 h serum-free; CDF or CUR 1-4 μMol/L, GEM 10 nMol/L
[3] = tested on: AsPC-1 and MIAPaCa-2 cells; assay: Clonogenic assay, parental lines; type: cell-based, human; conditions: 4 μmol/L CUR or CDF, 20 nmol/L GEM
[4] = tested on: COX-2, E-cadherin, PTEN, pAkt, tropomyosin expression; assay: Western blot of COX-2, E-cadherin, PTEN, pAkt, tropomyosin; type: cell-based, human; conditions: BxPC-3 cell line only, 72 h
[5] = biological target: T1, cellular 26S proteasome (Homo sapiens, UniProt P20618+P28074); assay: Proteasomal chymotrypsin-like activity in treated HCT 116 cells; type: cell-based; conditions: 24 h
T1 construct: host or cells: HCT 116 human colon cancer cells
Method: HCT 116 human colon cancer cells; human pancreatic carcinoma cell lines BxPC-3 and MIA PaCa-2, were purchased from American Type Culture Collection (Manassas, Va.) and grown in Dulbecco modified Eagle's medium supplemented with 10% fetal bovine serum (FBS), 100 units/ml of penicillin, and 100 μg/ml of streptomycin. Cells were maintained at 37° C. and 5% CO2. FBS was obtained from Tissue Culture Biologicals (Tulare, Calif.). Penicillin and streptomycin were purchased from Invitrogen Co. (Carlsbad, Calif.).
As a control, untreated cells were maintained in the solvent ethanol (E).

[6] = tested on: AsPC-1, AsPC1-GTR, MIAPaCa-2, and MIAPaCa-2-GTR cell lines; assay: BD BioCoat tumor invasion assay; type: cell-based, human; conditions: 4 μmol/L
Method: The invasive activity of the drug resistant cell lines was tested by using a BD BioCoat Tumor Invasion Assay System (BD Biosciences, Bedford, Mass.) according to the manufacturer's protocol. […] The fluorescence was read using a TECAN Microplate Reader at 530/590 nm and photographed.

[7] = tested on: human colon cancer HCT 116 cells; assay: MTT assay, HCT 116 cell growth; type: cell-based; conditions: read-out: inhibition on cell proliferation
Method: The concentrations were 10 μM, 20 μM, and 30 μM. After aspiration of growth medium, (3-(4,5-Dimethylthiazol-2-yl)-2,5-diphenyltetrazolium bromide (MTT; 1 mg/ml) was added to the cell cultures, followed by incubation for 3 hours at 37° C. After the cells were crystallized, the MTT was removed and dimethylsulfoxide (DMSO) was added to dissolve the metabolized MTT product. The absorbance was then measured on a Wallac Victor^3 1420 Multi-label counter at 540 nm.

[8] = tested on: PGE2; assay: PGE2 immunoassay of conditioned medium, BxPC-3 and MIA PaCa-2; type: cell-based, human; conditions: 24 h
Method: The conditioned medium was collected and analyzed for PGE2 concentration, according to the manufacture's protocol, using a PGE2 high sensitivity immunoassay kit purchased from R & D Systems, Minneapolis, Minn. The optical density was measured at 450 nm and the concentration of PGE2 was calculated from the standard curve.

[9] = tested on: BxPC-3 pancreatic cancer cells; assay: Cell Apoptosis ELISA (histone/DNA fragments), BxPC-3; type: cell-based, human; conditions: 72 h, various concentrations
Description: A Cell Apoptosis ELISA Detection Kit (Roche, Palo Alto, Calif.) was used to determine whether the inhibition of cell growth could be due, at least partially, to the induction of apoptosis, in the BxPC-3 pancreatic cancer cells. […] After the treatment, the cytoplasmic histone/DNA fragments were extracted and bound to immobilized anti-histone antibody. Subsequently, peroxidase-conjugated anti-DNA antibody was used for the detection of immobilized histone/DNA fragments.

[10] = Serum pharmacokinetics after single intragastric dose; type: in vivo, mice
Method: The mice were randomly divided into two groups of 18 mice apiece. […] Blood and tissue samples were harvested before initiation of treatment (0 hr) and at 1, 2, 4, 6, 8, 12, 16, and 24 hrs following the intragastric administration. At each time point, two mice were euthanized and ˜200 μL blood was collected by cardiac puncture, and tissues (liver, lung, kidney, heart, pancreas, and colon) were harvested, washed free of blood with PBS, blotted dry, weighed, and stored at −80° C. until analysis. The collected blood samples were allowed to clot, centrifuged, and then the serum was separated and stored at −80° C. until analysis.
The tissue samples were homogenized in 5 volumes of ice-cold normal saline. Aliquots of serum or tissue homogenate were spiked with ethyl acetate (containing 50 ng/ml zilueton as an internal standard) as follows: 100 μL serum/500 μL ethyl acetate and 500 μL tissue homogenate/1 ml ethyl acetate. The mixtures were vortex-mixed and centrifuged at 14,000 rpm for 5 minutes. The top layer was separated and dried under a stream of nitrogen in a water bath at about 50° C. The residue was reconstituted in 100 μL of methanol/water containing 0.45% formic acid (70:30 v/v) and then centrifuged again.
The supernatant (100 μL) was injected into the HPLC equipment, and separated on a Waters Xterra MS column (2.1×50 mm, […] i.d.) With a mobile phase consisting of methanol/water containing 0.45% formic acid (70:30 v/v) at a flow rate of 0.2 ml/min. The column effluent was monitored using a Waters Quattro Micro™ triple quadrapole mass-spectrometric detector equipped with an electrospray ionization source. (Waters Corporation, Milford, Mass.). […] The internal standard zilueton was monitored in the positive mode at the transition of m/z, 237.1→160.8. […] The within-day and between-day precision and accuracies of the assay was <15%.
Serum pharmacokinetic parameters were estimated using non-compartmental analysis with WinNonlin software version 4.2 (Pharsight Corporation, Cary, N.C.). The maximum serum concentration (Cmax) and the time of occurrence for maximum concentration (Tmax) were obtained by visual inspection of the serum concentration-time curve after drug administration. The total area under the serum concentration-time curve from time zero to the last measurable time point ([…]) was calculated using the linear and logarithmic trapezoidal method for ascending and descending serum concentrations, respectively.

[11] = serum, 250 mg/kg single intragastric
[12] = serum, as printed in text 'at 1 h'
[13] = female, ICR-SCID, mouse, po, serum, 250 mg/kg single intragastric

In the case of `COc1cc(/C=C/C(=O)CC(=O)/C=C/c2ccc(O)c(OC)c2)ccc1O` [CUR, (1E,6E)-1,7-bis(4-hydroxy-3-methoxyphenyl)hepta-1,6-diene-3,5-dione, reference compound], the “NF-κβ DNA binding activity” value [1] is reported as “much lower effects on NF-κβ DNA binding activity than the CDF-treated cells”, the PGE2 secretion level [2] is reported as “significant reduction in PGE2 level” and the clonogenicity [3] is reported as “significant reduction in clonogenicity”. The E-cadherin expression [4] was “significantly enhanced”, the inhibition at 10 µM [5] was 27% and the inhibition at 20 µM [5] was 47%. The inhibition at 30 µM [5] was 64%, the inhibition of invasion [6] was “minimal inhibition on invasion” and the inhibition at 10 µM ([7]; HCT-116, 24 h) was 24%. For the same molecule, the inhibition at 20 µM ([7]; HCT-116, 24 h) was 53%, the inhibition at 30 µM ([7]; HCT-116, 24 h) was 49% and the “PGE2 level in conditioned medium” value ([8]; MIAPaCa-2 cells, 4 μM) was “significant decrease in PGE2 levels”. For the same molecule, the “induction of apoptotic cell death” value [9] was “induce apoptosis”, the AUClast [10, 11] was 440 ng·h/mL and the Clast [10, 11] was 30 ng/mL. The Tlast ([10]; serum, 250 mg/kg single intragastric, 250 mg/kg) was 8 h, the Tlast ([10]; serum, 250 mg/kg single intragastric, listed as Curcumin, 250 mg/kg) was 8.0 h and the AUClast [10, 12] was 0.44 µg/mL.

For `COc1cc(/C=C/C(=O)C(=Cc2ccc(F)c(F)c2)C(=O)/C=C/c2ccc(O)c(OC)c2)ccc1O` [CDF, (1E,6E)-1,7-bis(4-hydroxy-3-methoxyphenyl)hepta-1,6-diene{4(3,4 difluorobenzaldehyde)}-3,5-dione], the “NF-κβ DNA binding activity” value [1] was “significant inhibition in the DNA binding activity of NF-κβ in all three cell lines”, the PGE2 secretion level [2] was “significant reduction in PGE2 level” and the clonogenicity [3] was “significant reduction in clonogenicity”. For the same molecule, the E-cadherin expression [4] was “significantly enhanced”, the inhibition at 10 µM [5] was 34% and the inhibition at 20 µM [5] was 51%. The inhibition at 30 µM [5] was 61%, the inhibition of invasion [6] was “significant inhibition of invasion” and the inhibition at 10 µM ([7]; HCT-116, 10 μM, 24 h) was 24%. The inhibition at 20 µM ([7]; HCT-116, 20 μM, 24 h) was 39%, the inhibition at 30 µM ([7]; HCT-116, 30 μM, 24 h) was 68% and the “PGE2 level in conditioned medium” value ([8]; BxPC-3 cells, 1 μM) was “significant decrease in PGE2 level”. For the same molecule, the “PGE2 level in conditioned medium” value ([8]; MIAPaCa-2 cells, 4 μM) was “significant decrease in PGE2 levels”, the “induction of apoptotic cell death” value [9] was “superior to CUR” and the AUC(0-t) [10, 13] was 1220 ng·h/mL. For the same molecule, the Cmax [10, 13] was 210 ng/mL, the Tmax [10, 13] was 8 h and the “increase in systemic drug level over Curcumin” value ([10]; serum AUClast, oral 250 mg/kg) was 2.7 fold. It also gave a Clast [10, 11] of 40 ng/mL, a Tlast [10, 11] of 16.0 h and an AUClast [10, 12] of 1220 ng·h/mL.
